Test results as given in patent publication US12377166B2, “Iron oxide nanoparticle for targeted chemo-immunotherapy” (University of Washington, priority 2021, dated 2025).

Experiments:
[1] = tested on: IL-12; test: IL-12 production by BMDCs (ELISA); format: cell-based, BALB/c mice; conditions: 10 μg/mL Poly IC equivalent, 24 h
Protocol: IL-12 production by ELISA assay. All conditions used were same as those for viability assay. Twenty-four hours after addition of agents into cell medium, supernatants were collected and IL-12 levels in medium were assessed by an ELISA assay kit following the manufacturer's protocol. Each condition was triplicated.

[2] = tested on: IL-12; test: Serum/plasma IL-12 after I.V. injection (ELISA); format: in vivo, mice; conditions: for change of plasma IL-12 level: I.V., DOX 5 mg/kg, Poly IC 18 mg/kg, or NP (DOX 10 mg/kg, Poly IC 18 mg/kg)
Protocol: Six-week-old mice were administered with IONP-DOX-Poly IC-EBP-Cy5 through I.V. injection (dosage: 10 mg/kg DOX or equivalent). At 1, 2, 4, 8, 24 and 72 h post-injection, blood (5-25 μL) was collected from tail vein. The total amount of blood withdrawn from each mouse never exceeded one percent of the total body weight of the animal during the experiment. Whole blood was diluted with PBS and spun using a benchtop centrifuge for 2 min at 5000 g to separate the plasma. The diluted plasma was added to a 96-well black plate. The plate was scanned on a SpectraMax i3 plate reader (fluorescence mode) to measure Cy5 (ex, 646 nm; em, 676 nm) and DOX (ex, 500 nm; em, 600 nm) fluorescence signals. Three mice were used for each group.
The same conditions in pharmacokinetics study were used here except that blood was collected before agent administration and 2, 6.5 and 24 h after administration. IL-12 in plasma was assessed using an ELISA kit following the manufacturer's instruction and quantified with a SpectraMax i3 plate reader.

[3] = tested on: 4T1 cells; test: Alamar Blue cell viability assay; format: cell-based, murine; conditions: 72 h incubation
Protocol: Alamar Blue cell viability assay. Cells were seeded in a 96-well plate and incubated overnight. The following day, the medium was replaced with medium containing various agents. The cells were then incubated for 72 h. Cell viability was assessed using the Alamar Blue assay. Briefly, the medium was replaced with cell culture medium containing the reagent and allowed to incubate for 2 h. Following the incubation, a microplate reader (SpectraMax i3 multimode microplate reader, Molecular Devices) was used to determine the fluorescence intensity of the dye (550ex/590em). The fluorescence intensity from NP or free drug treated cells was compared to those from untreated control cells to determine percent viability. Each condition was triplicated.

[4] = tested on: 4T1-luc flank tumor; test: Tumor growth inhibition in 4T1-luc flank tumor model; format: in vivo; conditions: for inhibition to tumor growth as compared to PBS-treated mice: three I.V. doses days 7, 10, 13, free DOX 5 mg/kg, NP DOX 10 mg/kg, Poly IC 18 mg/kg
Protocol: 6-Week-old female BALB/c mice were used. 4T1-luc cells were transfected to stably express luciferase so that bioluminescence imaging could be used to monitor tumor growth. 4T1-luc cells were trypsinized and suspended in PBS (10^7 cells/mL) and injected subcutaneously into the right flanks of mice (0.1 mL per mouse). Seven days after tumor inoculation, twenty-eight mice were randomly divided into 7 groups and each group was administered through intravenous injection with three doses of one of the following agents: PBS, IONPs, DOX, Poly IC, IONP-DOX-EBP, IONP-DOX-Poly IC, and IONP-DOX-Poly IC-EBP. […] For all NP agents, doses of DOX and Poly IC were 10 mg/kg and 18 mg/kg, respectively. Each mouse received an injection at day 7, 10 and 13 after tumor inoculation. The tumor size was measured by a caliper and the tumor volume was calculated by equation: V=width^2×length/2. The tumor size was measured every 3 days starting at day 4 after tumor cell inoculation. The body weight was also monitored after first agent administration.

[5] = tested on: T cells (CD8, CD25, CD69); test: Antigen-specific T cell response by flow cytometry in 4T1 tumor-bearing mice; format: in vivo, BALB/c mice; conditions: three days after treatment
Protocol: Twelve 6-week-old female BALB/c mice were used. 4T1 cells (10^5 cells per mouse) were inoculated subcutaneously into #9 mammary glands. The tumors were allowed to grow into palpable masses. Ten days after tumor inoculation, the 12 mice were separated into 4 treatment groups. Four treatments, including IONP-DOX-EBP-Poly IC (10 mg/kg DOX and Poly IC), IONP-DOX-EBP (10 mg/kg DOX), free Poly IC (10 mg/kg Poly IC) and PBS, were administered intravenously into four groups of mice bearing tumors (200 μL per mouse), respectively. Three days after administration, mice were euthanized, and tumors and spleens were harvested.
Harvested tumors and spleens were then sectioned, squeezed through 70 μm cell strainers and washed with PBS w/1% v/v ratio of FBS to obtain single cell suspensions. Cells were spun down with a centrifuge at 1500 rpm for 4 min and resuspended in 750 μL PBS w/1% v/v FBS. Anti-CD8-PE, anti-CD25-APC, and anti-CD69-FITC (Biolegend Inc.) solutions (3 μL each) were then mixed with 241 μL of PBS w/1% v/v FBS (total antibody solution volume for each single cell suspension was 250 μL). The cell/antibody suspension was then incubated in dark at room temperature for 30 mins. After incubation, 11 mL of PBS w/1% v/v FBS was added to all cell/antibody suspensions followed by centrifuging at 1500 rpm for 4 mins. Finally, all cell pellets were resuspended in 500 μL PBS w/1% v/v FBS and analyzed by flow cytometry (FACSCanto II).

[6] = tested on: 4T1 cells; test: Cell uptake assay by flow cytometry; format: cell-based, murine; conditions: 2 h
Protocol: Cell uptake assay by flow cytometry. 4T1 cells were incubated with different agents for 2 h (10 μg/mL DOX or DOX equivalent NPs) at either 37° C. or 4° C., followed by washing with cold PBS for 3 times. Cells were then trypsinized and resuspended in cold PBS and analyzed by flow cytometry (FACSCanto II, BD Biosciences). Each condition was triplicated.

[7] = tested on: 4T1-luc tumors and organs; test: DOX uptake in organs and tumors by confocal imaging; format: in vivo, BALB/c mice; conditions: 10 mg/kg DOX, single I.V., 48 h post-injection
Protocol: (§1) One week after inoculated with 4T1-luc cells, mice were injected with various agents intravenously. Forty-eight hours later, mice were euthanized and organs (heart, kidney, liver, lung, and spleen) and tumors were harvested and pre-served in 10% formalin for 48 h. Formalin-fixed tissue samples were first transferred from PBS to 70% ethanol and maintained for 2 hours, and then were transferred into 95% ethanol/5% methanol and maintained for an additional 2 hours. The samples were transferred in absolute ethanol and maintained for 1 hour, and then transferred again into 3 consecutive absolute xylene solutions and maintained in each for 1 hour. The samples were dehydrated and then placed in 2 consecutive melted paraffin baths and maintained in each for 2 hours. The tissue samples were then embedded in paraffin blocks and sectioned at 10 um thickness and loaded onto microscope slides. The loaded slides were heated to remove excess paraffin and adhere the samples to the slides. The samples were then deparaffinized by a series of xylene, ethanol and PBS baths.
The deparaffinized tissue samples were stained with DAPI and WGA-AF647 and mounted with Prolong Gold mounting medium. Samples were imaged with a Leica SP8X confocal microscope.

[8] = H&E histopathology of organs; format: in vivo, BALB/c mice; conditions: 10 mg/kg DOX equivalent, single I.V., 48 h
Protocol: as §1
The deparaffinized samples were stained with haemotoxylin and eosin, and mounted with Prolong Gold mounting medium. Microscopic images of tissues were acquired using a Nikon ECLIPSE TE 2000-S microscope.

[9] = tested on: bone marrow-derived dendritic cells (BMDCs); test: Confocal imaging of cellular uptake into BMDCs; format: cell-based, BALB/c mice; conditions: 10 μg/mL Poly IC equivalent, 1 h, 37 °C
Protocol: BMDCs preparation. BMDC were generated from female BALB/c mice of 6-8 weeks old. The isolation of bone marrow cells was carried out following the method described in Madaan, A., et al., Journal of Biological Methods (2014) 1 (1). Cells were resuspended in RPMI-1640 supplemented with 10% FBS, 20 ng/mL recombinant murine GM-CSF (Shenandoah Biotechnology, Inc, Warwick, PA), and antibiotics (Pen Strep). Cells were allowed to differentiate for 7 d with one addition of fresh media at day 3. At day 7, cells were aspirated and counted for assays. Medium containing 10 ng/mL GM-CSF was used in assays.
Confocal microscopic imaging of cellular uptake. Cells were seeded onto a chamber slide (Nunc™ Lab-Tek™ II Chamber Slide™ System, Thermo Fisher Scientific Rockford, IL) with a density of 50,000 per well and incubated overnight. DOX, IONP-DOX-EBP-Cy5, or IONP-DOX-Poly IC-EBP-Cy5 was added into cells at a concentration of 10 μg/mL Poly IC-equivalency and incubated for 1 h. Cells were then washed and imaged with a Leica SP8X confocal laser scanning microscope.

[10] = tested on: 4T1-luc orthotopic tumor; test: Tumor growth, survival and metastasis in 4T1-luc primary (orthotopic) tumor model; format: in vivo, BALB/c mice
Protocol: 6-Week-old female BALB/c mice were used in this study. 4T1-luc cells were injected subcutaneously into the #9 mammary glands (10^6 cells in 0.05 mL PBS per mouse). Seven days after tumor inoculation, eighteen mice were randomly divided into 3 groups and each group was administered through intravenous injection with five doses of one of the following agents: PBS, DOX, and IONP-DOX-Poly IC-EBP. For free DOX, dose was 5 mg/kg per injection. For IONP-DOX-Poly IC-EBP, doses of DOX and Poly IC were 10 mg/kg and 18 mg/kg, respectively. Each mouse received an injection at day 7, 10, 13, 16 and 19 after tumor inoculation. The tumor size and body weight were monitored after first administration. Metastasis was monitored by IVIS imaging starting at day 22 after tumor inoculation. Mice were imaged at day 22, 25, 28, 31, 34, 37, 41, 45 and 50. Mice were euthanized following the approved animal protocol.

## polyinosinic:polycytidylic acid [Poly IC]
[1]
  production of IL-12 in cellular supernatants: equivalent production of IL 12
[2]; I.V. injection
  time of peak IL-12 level post injection: 1.5 h
[2]
  change of plasma IL-12 level: rapid elevation of the IL-12 level
[3]
  toxicity to cells (viability): non-toxic to cells
[4]
  inhibition to tumor growth as compared to PBS-treated mice: small
[5]
  CD8 cells in tumor: 8.63%
  CD25 cells in tumor: 7.91%
  CD69 cells in tumor: 3.57%

## COc1cccc2c1C(=O)c1c(O)c3c(c(O)c1C2=O)C[C@@](O)(C(=O)CO)C[C@@H]3O[C@H]1C[C@H](N)[C@H](O)[C@H](C)O1 [DOX, doxorubicin]
[6]; 10 μg/mL DOX equivalent
  mean fluorescence intensity (MFI) of DOX, cellular uptake: 451
[6]; 4 °C vs 37 °C
  DOX taken up by cells at 4° C.: 10%
[7]
  DOX signal in liver: strong and evenly distributed fluorescence signal
  DOX signal in tumors: No observable DOX signal
[2]
  change of plasma IL-12 level: did not increase the IL-12 level
[3]; DOX concentration
  IC50 (cell viability): about 0.36 μg/mL
[8]
  heart damage (H&E): severe heart damage
  pathological changes in organs other than heart (H&E): No pathological changes
[4]; free DOX 10 mg/kg I.V.
  time to mouse death from severe toxicity: less than 2 weeks
[4]
  inhibition to tumor growth as compared to PBS-treated mice: small
[9]
  uptake and localisation of DOX in BMDCs: can enter BMDCs
[10]; five I.V. injections 3 days apart, free DOX 5 mg/kg, NP DOX 10 mg/kg, Poly IC 18 mg/kg
  median survival time: 32.5 days
[10]; five I.V. injections, IVIS bioluminescence
  metastasis delayed to day after tumor inoculation: 31 days
